The values that follow come from PMC1334386 (PLoS Biology, 2006).

Assay [1] has as its system full-length HAUSP. Nature of the assay: gel filtration binding assay of MDM2 with full-length HAUSP. The conditions noted are these: Superdex-200, 25 mM Tris pH 8.0, 100 mM NaCl, 2 mM DTT, 4 °C. Here is the method: (§1) Size-exclusion chromatography (gel filtration), using a Superdex-200 column (10/30, Amersham Pharmacia Biotech, Piscataway, New Jersey, United States), was employed to carry out all the in vitro binding assays. Proteins subjected to binding tests were incubated at 4 °C for at least 45 min to allow equilibrium to be reached. The flow rate was 0.5 ml/min, and the buffer contained 25 mM Tris (pH 8.0), 100 mM NaCl, and 2 mM DTT. All fractions were collected at 0.5 ml each. Aliquots of relevant fractions were mixed with SDS sample buffer and subjected to SDS-polyacrylamide gel electrophoresis. The proteins were visualized by Coomassie Blue staining. The column was calibrated with molecular-mass standards.

Assay [2] deals with T1, HAUSP TRAF-like domain (residues 53–206) (Homo sapiens, UniProt Q93009).
T1 construct: GST (N); made in house; host or cells: Escherichia coli BL21(DE3), vector pGEX-2T
T1 sequence (Q93009 53-206): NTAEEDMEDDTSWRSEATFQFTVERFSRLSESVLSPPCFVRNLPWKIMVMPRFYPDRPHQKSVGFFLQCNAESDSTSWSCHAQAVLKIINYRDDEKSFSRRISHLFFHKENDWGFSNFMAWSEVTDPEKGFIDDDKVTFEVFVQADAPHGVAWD
Nature of the assay: gel filtration binding assay of MDM2 fragments with HAUSP TRAF-like domain. The conditions noted are these: Superdex-200, HAUSP residues 53–206, 25 mM Tris pH 8.0, 100 mM NaCl, 2 mM DTT, 4 °C. As to the method: as §1
On the technique in general: Size exclusion chromatography separates by hydrodynamic size, large species first.

For assay [3], the system named is HAUSP TRAF-like domain (residues 1–206). Nature of the assay: gel filtration binding assay with HAUSP (residues 1–206). To be noted: Superdex-200, 25 mM Tris pH 8.0, 100 mM NaCl, 2 mM DTT, 4 °C, SDS-PAGE/Coomassie, protein alone, no competitor. As to the method: as §1

On to “MDM2 (residues 170–432): 33-kDa fragment of MDM2 (residues 170–432)”, for which the “complex formation with full-length HAUSP” value in assay [1] was “formed a stable complex”. In assay [2], the “complex formation with HAUSP TRAF-like domain” value is reported as “formed a stable complex”.
“MDM2 (residues 170–423): MDM2 fragment, residues 170–423”: the “complex formation with HAUSP (residues 1–206)” value in assay [3] is on record as “form a stable complex”.
